From ChEMBL document CHEMBL1201862, “PubChem BioAssay data set” (2004)
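Values below derive from 48-hour exposures of cells grown in 96-well plates, with endpoints linearly interpolated between the two concentrations bracketing the appropriate inhibition level. GI50: concentration for 50% inhibition of growth.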 The source made the active and inactive calls. No stated cut-off is given here; in the data, active = GI50 up to about 1.1 µM and inactive = higher.

Assays:
Assay in all cases: inhibition of tumour cell growth, NCI panel, 48 h
[1] = test system: BT-549
[2] = test system: DU-145
[3] = test system: HCT-116
[4] = test system: HCT-15
[5] = test system: HL-60
[6] = test system: HT-29
[7] = test system: K562
[8] = test system: KM12
[9] = test system: MDA-MB-231
[10] = test system: MOLT-4
[11] = test system: Malme-3M
[12] = test system: NCI-H23
[13] = test system: NCI-H460
[14] = test system: OVCAR-8
[15] = test system: RPMI-8226
[16] = test system: RXF 393
[17] = test system: SF-295
[18] = test system: SK-OV-3
[19] = test system: UACC-62
[20] = test system: UO-31

Row | SMILES | GI50 [1] | GI50 [2] | GI50 [3] | GI50 [4] | GI50 [5] | GI50 [6] | GI50 [7] | GI50 [8] | GI50 [9] | GI50 [10] | GI50 [11] | GI50 [12] | GI50 [13] | GI50 [14] | GI50 [15] | GI50 [16] | GI50 [17] | GI50 [18] | GI50 [19] | GI50 [20]
1 | CCN(CC)c1ccc2c(c1)OC(=O)C(c1nnc(-c3ccc([N+](=O)[O-])cc3)o1)C2 (stereo not given) | > 100 µM (inactive) | > 100 µM (inactive) | > 100 µM (inactive) | > 100 µM | 84.5 µM (inactive) | > 100 µM (inactive) | 38 µM (inactive) | > 100 µM (inactive) | > 100 µM (inactive) | > 100 µM (inactive) | > 100 µM (inactive) | > 100 µM (inactive) | > 100 µM (inactive) | > 100 µM (inactive) | > 100 µM (inactive) | > 100 µM (inactive) | > 100 µM (inactive) | > 100 µM (inactive) | > 100 µM (inactive) | > 100 µM (inactive)
2 | Nc1nc(NCC2(CO)CC(CCc3ccccc3)C2)cc(=O)[nH]1 (stereo not given) | > 100 µM (inactive) | > 100 µM (inactive) | > 100 µM (inactive) | > 100 µM | 82.8 µM (inactive) | > 100 µM (inactive) | 26.2 µM (inactive) | > 100 µM (inactive) | > 100 µM (inactive) | 55.2 µM (inactive) | > 100 µM (inactive) | > 100 µM (inactive) | > 100 µM (inactive) | > 100 µM (inactive) | 46.7 µM (inactive) | > 100 µM (inactive) | > 100 µM (inactive) | 22.2 µM (inactive) | > 100 µM (inactive) | 18.2 µM (inactive)
3 | CCOC(=O)c1ccc(Nc2nc3ccccc3n3cccc23)cc1 | > 100 µM (inactive) | 86.1 µM (inactive) | > 100 µM (inactive) | 21.8 µM | < 0.01 µM (active) | 36.7 µM (inactive) | 29.8 µM (inactive) | 28.1 µM (inactive) | 36 µM (inactive) | > 100 µM (inactive) | > 100 µM (inactive) | 63.8 µM (inactive) | 84.7 µM (inactive) | 47.8 µM (inactive) | > 100 µM (inactive) | 14.3 µM (inactive) | 27.1 µM (inactive) | 27.4 µM (inactive) | 40.8 µM (inactive) | > 100 µM (inactive)
4 | C/C(=N\N=C(/S)N(C)C)c1cccc[n+]1[O-] | 49.9 µM (inactive) | 59 µM (inactive) | 0.489 µM (active) | 1.45 µM | 1.03 µM (active) | 3.05 µM (inactive) | 0.631 µM (active) | 45.5 µM (inactive) | 2.99 µM (inactive) | 0.914 µM (active) | 43.7 µM (inactive) | 12.6 µM (inactive) | 33.6 µM (inactive) | 23.7 µM (inactive) | 3.62 µM (inactive) | 65.3 µM (inactive) | 39.6 µM (inactive) | 70.5 µM (inactive) | 16.1 µM (inactive) | 23.2 µM (inactive)
5 | CCCCON1C[C@H](OC(C)=O)C(OC(C)=O)[C@H](OC(C)=O)C1 (stereo not given in full) | > 100 µM (inactive) | > 100 µM (inactive) | > 100 µM (inactive) | > 100 µM | > 100 µM (inactive) | > 100 µM (inactive) | > 100 µM (inactive) | > 100 µM (inactive) | > 100 µM (inactive) | > 100 µM (inactive) | > 100 µM (inactive) | > 100 µM (inactive) | > 100 µM (inactive) | > 100 µM (inactive) | > 100 µM (inactive) | > 100 µM (inactive) | > 100 µM (inactive) | > 100 µM (inactive) | > 100 µM (inactive) | > 100 µM (inactive)
6 | CCCCCCCCCCCCOC1C(COCCN2CCCCC2)OC2OC(C)(C)OC21 (stereo not given) | 2.21 µM (inactive) | 10 µM (inactive) | 1.67 µM (inactive) | 1.79 µM | 1.24 µM (inactive) | 1.21 µM (inactive) | 1.11 µM (active) | 1.64 µM (inactive) | 1.91 µM (inactive) | 1.53 µM (inactive) | 1.86 µM (inactive) | 2.47 µM (inactive) | 1.9 µM (inactive) | 1.8 µM (inactive) | 1.52 µM (inactive) | 1.7 µM (inactive) | 1.69 µM (inactive) | 4.08 µM (inactive) | 1.84 µM (inactive) | 1.59 µM (inactive)
7 | O=C1OCC2OC(=O)c3cc(O)c(O)c(O)c3-c3c(O)c(O)c(O)c4c3C(=O)OC(C2OC(=O)c2cc(O)c(O)c(O)c2-c2c1cc(O)c(O)c2O)C1OC(=O)c2c-4c(O)c(O)c(O)c2[C@@H]1C(O)C(O)C(O)C(O)CO (stereo not given in full) | 22.8 µM (inactive) | 20.2 µM (inactive) | 16.2 µM (inactive) | 16.1 µM | 17 µM (inactive) | 14.4 µM (inactive) | 10.5 µM (inactive) | 22 µM (inactive) | 12.7 µM (inactive) | 20.4 µM (inactive) | 18.1 µM (inactive) | 19.2 µM (inactive) | 17.6 µM (inactive) | 23.3 µM (inactive) | 29 µM (inactive) | 19.3 µM (inactive) | 20.1 µM (inactive) | 27.4 µM (inactive) | 17.8 µM (inactive) | 17.8 µM (inactive)
